Assay results published in ChEMBL document CHEMBL1201862, “PubChem BioAssay data set” (2004).
Calls of active or inactive are those of the source.

Legend:
NS3 = NS3 (Hepatitis C virus, UniProt A3EZJ3); test: PubChem AID 2173; set-up: species or system Hepacivirus hominis
X-box-binding protein 1 = X-box-binding protein 1 (Homo sapiens, UniProt P17861); assay type: functional, Cricetulus griseus;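 further: confirmatory dose-response counter-screen serving a CHOP assay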
J774.A1 = test: Confirmation of image-based Screening Assay for Inhibitors of Phagocytosis. [Related pubchem assays (depositor defined):AID1029, AID1643]; assay type: functional, cell-based; settings: Mus musculus
[1] = HEK-293T viability loss after treatment – luminescence, T-cell screen hits, cytotoxicity control for TCR NF-kB inhibitor project, dose response (AID 489026); assay type: functional, cell-based;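 further: cells exposed to compound about 14 hours before the viability readout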
SUMO-activating enzyme [2] = target: T1, SUMO-activating enzyme (Homo sapiens, UniProt Q9UBT2); test: blockers of SAE1/SAE2–UBC9 SUMO transfer – biochemical, HTRF, uHTS, primary screen (AID 2006); assay type: protein-complex assay
SUMO-activating enzyme [3] = target: T1, SUMO-activating enzyme; test: blockers of UBC9-mediated SUMO conjugation – biochemical, AlphaScreen, SUMOylation inhibitor project, confirmation (AID 2018); assay type: functional
[4] = target: T2, Histone-lysine N-methyltransferase NSD2 (Homo sapiens, UniProt O96028); assay type: biochemical
T2 sequence (O96028 whole entry): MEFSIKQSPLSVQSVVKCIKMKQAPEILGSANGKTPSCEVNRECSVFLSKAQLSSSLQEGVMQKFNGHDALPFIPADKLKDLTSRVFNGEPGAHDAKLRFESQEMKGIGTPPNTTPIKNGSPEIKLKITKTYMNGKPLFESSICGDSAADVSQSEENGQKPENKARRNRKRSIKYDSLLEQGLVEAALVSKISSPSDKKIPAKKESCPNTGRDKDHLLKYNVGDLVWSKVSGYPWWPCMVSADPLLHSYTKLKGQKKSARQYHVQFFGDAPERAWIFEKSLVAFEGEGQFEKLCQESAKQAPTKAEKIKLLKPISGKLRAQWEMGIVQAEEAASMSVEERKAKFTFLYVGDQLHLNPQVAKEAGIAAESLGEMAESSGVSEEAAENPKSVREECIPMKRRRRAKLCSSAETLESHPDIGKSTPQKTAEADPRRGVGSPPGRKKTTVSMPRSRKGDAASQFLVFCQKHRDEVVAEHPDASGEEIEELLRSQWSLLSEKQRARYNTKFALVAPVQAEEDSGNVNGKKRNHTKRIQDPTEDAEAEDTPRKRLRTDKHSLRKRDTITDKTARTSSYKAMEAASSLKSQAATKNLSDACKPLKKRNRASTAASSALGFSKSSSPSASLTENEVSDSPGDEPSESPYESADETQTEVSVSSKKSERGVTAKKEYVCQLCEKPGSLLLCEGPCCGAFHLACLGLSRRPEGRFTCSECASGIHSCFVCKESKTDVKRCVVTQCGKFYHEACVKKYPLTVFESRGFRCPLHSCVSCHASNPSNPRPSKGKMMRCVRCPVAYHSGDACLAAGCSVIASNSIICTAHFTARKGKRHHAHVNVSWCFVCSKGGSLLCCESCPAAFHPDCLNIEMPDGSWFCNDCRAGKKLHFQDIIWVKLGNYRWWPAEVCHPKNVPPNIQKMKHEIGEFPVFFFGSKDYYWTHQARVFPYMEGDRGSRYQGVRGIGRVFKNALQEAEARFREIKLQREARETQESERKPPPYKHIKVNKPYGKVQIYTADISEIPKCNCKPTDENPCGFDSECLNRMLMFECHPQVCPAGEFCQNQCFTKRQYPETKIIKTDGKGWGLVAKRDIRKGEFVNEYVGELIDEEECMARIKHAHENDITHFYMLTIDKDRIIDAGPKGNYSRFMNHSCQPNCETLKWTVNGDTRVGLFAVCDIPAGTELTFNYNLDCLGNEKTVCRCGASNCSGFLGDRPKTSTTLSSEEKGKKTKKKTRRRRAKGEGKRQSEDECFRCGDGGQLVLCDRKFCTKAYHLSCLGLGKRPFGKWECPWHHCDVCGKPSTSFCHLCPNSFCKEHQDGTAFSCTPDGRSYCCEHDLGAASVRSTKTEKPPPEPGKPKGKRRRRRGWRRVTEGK

Sequence of X-box-binding protein 1 (P17861 whole entry): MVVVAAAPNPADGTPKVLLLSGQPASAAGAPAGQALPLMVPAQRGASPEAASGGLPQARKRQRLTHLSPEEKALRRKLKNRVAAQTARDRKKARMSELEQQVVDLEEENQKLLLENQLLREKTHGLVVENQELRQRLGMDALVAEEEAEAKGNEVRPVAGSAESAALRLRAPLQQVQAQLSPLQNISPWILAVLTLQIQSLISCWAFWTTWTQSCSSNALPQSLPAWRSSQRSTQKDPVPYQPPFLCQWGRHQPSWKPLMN
T1 sequence (Q9UBE0 whole entry): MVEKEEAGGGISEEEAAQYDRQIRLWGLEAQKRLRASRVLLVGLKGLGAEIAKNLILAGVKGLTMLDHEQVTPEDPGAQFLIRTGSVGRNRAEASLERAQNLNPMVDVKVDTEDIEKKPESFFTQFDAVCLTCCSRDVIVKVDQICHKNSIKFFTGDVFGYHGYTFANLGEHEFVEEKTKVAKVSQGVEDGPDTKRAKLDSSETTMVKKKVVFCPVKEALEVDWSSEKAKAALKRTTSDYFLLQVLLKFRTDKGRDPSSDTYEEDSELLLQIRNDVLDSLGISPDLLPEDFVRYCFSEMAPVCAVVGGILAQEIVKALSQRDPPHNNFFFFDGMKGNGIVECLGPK
T1 sequence (Q9UBT2 whole entry): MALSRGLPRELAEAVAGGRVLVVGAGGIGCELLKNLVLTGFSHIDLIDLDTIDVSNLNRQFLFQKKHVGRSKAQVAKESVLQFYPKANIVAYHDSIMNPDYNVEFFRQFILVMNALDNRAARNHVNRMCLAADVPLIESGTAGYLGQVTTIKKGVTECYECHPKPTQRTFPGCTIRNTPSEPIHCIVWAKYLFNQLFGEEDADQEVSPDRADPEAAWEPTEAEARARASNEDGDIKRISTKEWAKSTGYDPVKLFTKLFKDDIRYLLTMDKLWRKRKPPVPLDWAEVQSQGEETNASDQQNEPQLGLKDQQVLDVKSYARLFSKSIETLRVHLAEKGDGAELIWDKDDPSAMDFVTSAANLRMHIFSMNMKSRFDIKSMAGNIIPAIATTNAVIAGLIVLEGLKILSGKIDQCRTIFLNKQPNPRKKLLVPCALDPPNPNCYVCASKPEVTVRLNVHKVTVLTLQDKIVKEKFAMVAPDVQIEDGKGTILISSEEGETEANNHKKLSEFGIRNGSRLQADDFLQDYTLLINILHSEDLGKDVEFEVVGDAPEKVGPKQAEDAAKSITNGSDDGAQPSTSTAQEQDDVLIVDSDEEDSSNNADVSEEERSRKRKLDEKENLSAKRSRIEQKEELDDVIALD
Sequence of NS3 (A3EZJ3 whole entry): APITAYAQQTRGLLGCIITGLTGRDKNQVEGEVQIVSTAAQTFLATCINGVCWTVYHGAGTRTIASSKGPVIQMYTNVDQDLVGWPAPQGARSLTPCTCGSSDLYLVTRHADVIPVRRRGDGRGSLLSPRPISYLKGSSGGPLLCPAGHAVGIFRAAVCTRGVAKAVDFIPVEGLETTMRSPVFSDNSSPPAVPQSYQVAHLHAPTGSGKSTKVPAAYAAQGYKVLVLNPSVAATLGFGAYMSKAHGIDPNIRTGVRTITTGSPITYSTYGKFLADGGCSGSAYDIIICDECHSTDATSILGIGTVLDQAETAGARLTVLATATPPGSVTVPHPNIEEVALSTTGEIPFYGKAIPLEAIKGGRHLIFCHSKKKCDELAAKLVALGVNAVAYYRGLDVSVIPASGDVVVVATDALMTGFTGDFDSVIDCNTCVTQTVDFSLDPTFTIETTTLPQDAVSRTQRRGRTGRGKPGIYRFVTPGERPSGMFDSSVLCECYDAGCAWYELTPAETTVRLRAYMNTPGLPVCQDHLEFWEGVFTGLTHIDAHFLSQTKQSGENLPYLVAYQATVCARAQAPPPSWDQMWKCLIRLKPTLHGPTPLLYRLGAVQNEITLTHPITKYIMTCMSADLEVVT

Cc1cc2cc(C(c3nnnn3Cc3ccco3)N3CCc4ccccc4C3)c(O)nc2cc1C (stereo not drawn)
IC50 (NS3): > 109 µM (not active)

CCC(C)Sc1nc2c(c(=O)[nH]c(=O)n2C)n1Cc1ccc(Cl)cc1 (stereo not drawn)
Absolute IC50 (XBP1) (X-box-binding protein 1): 10 µM

CCOc1ccc(N/C=C2/C(=O)NC(=O)N(C(C)(C)C)C2=O)cc1
Absolute IC50 (XBP1) (X-box-binding protein 1): 10 µM

CC(C)Oc1ccccc1C1CC(=O)Nc2cc3c(cc21)OCO3 (stereo not drawn)
IC50 (J774.A1): > 25 µM (inactive)
IC50 [1]: > 80 µM (inactive)

COc1cc2c(C#N)c(N3CCCC3)nc(N)c2c(N)n1
IC50 (SUMO-activating enzyme [2]): 3.79 µM (active)
IC50 (SUMO-activating enzyme [3]): 5.34 µM (active)
AC50 [4]: 9.62 µM (active)
